What all share (format): functional
The nature of experiment [1]: Antioxidant activity assessed as superoxide radical anion scavenging activity at 0.5 mg/ml by hypoxanthine NBT method.
A short description of experiment [2]: Antioxidant activity assessed as superoxide radical anion scavenging activity by hypoxanthine NBT method.
A short description of experiment [3]: Antioxidant activity assessed as superoxide radical anion scavenging activity at 0.2 mg/ml by hypoxanthine NBT method.

The IC50 is the concentration that inhibits the measured activity by half.

≈ marks a conversion by molar mass, not a printed value. Calls of active or inactive are those of the source. The calls are words filed in the database; no cut-off is given here.

With `COc1cc2c(cc1[C@@H]1CC(=O)c3c(O)c(C)c4c(c3O1)C=CC(C)(C)O4)C=CC(C)(C)O2`, the Activity in experiment [1] came out at 95.8%. Moreover, in experiment [2], the IC50 stood at 140 µg/mL (≈ 312 µM). Besides, the result in experiment [3] was Active.
On to `C[C@@H]1O[C@@H](Oc2c(-c3ccc(O)cc3)oc3cc(O)cc(O)c3c2=O)[C@H](O)[C@H](O)[C@H]1O`, for which the Activity in experiment [1] amounted to 29.9%.
Still for that read-out and setting: as for `O=c1c(O)c(-c2ccc(O)c(O)c2)oc2cc(O[C@@H]3O[C@H](CO)[C@@H](O)[C@H](O)[C@H]3O)cc(O)c12`, the figure is 71.7%.
Still for that read-out and setting: for `C[C@@H]1O[C@@H](Oc2c(-c3ccc(O)c(O)c3)oc3cc(O)cc(O)c3c2=O)[C@H](O)[C@H](O)[C@H]1O` the value was 88.9%; for `C[C@@H]1O[C@@H](Oc2cc(O)c3c(=O)c(O[C@@H]4O[C@@H](C)[C@H](O)[C@@H](O)[C@H]4O)c(-c4ccc(O)cc4)oc3c2)[C@H](O)[C@H](O)[C@H]1O`, 17.6%; for `O=c1c(O[C@@H]2O[C@H](CO)[C@@H](O)[C@H](O)[C@H]2O)c(-c2ccc(O)cc2)oc2cc(O)cc(O)c12`, 51.7%.
